Results reported in patent US9492428B2, “Compounds, compositions, pharmaceutical compositions, and methods of use” (University of Louisville Research Foundation, Inc., priority 2011, dated 2016).

Experiments:
Format in all cases: cell-based, human
PC-3 cells = assay: Clonogenic assay in PC-3
Method: (§1) FIG. 7. Clonogenic assays in prostate cancer cells treated with compound I-1. Prostate cancer cells, DU145 (A) or PC3 (B), were plated at very low density in 6-well plates and incubated 18 h at 37° C. Cells were treated by addition of various concentrations of compound I-1 or with an equivalent volume of vehicle (DMSO), or were left untreated. After 10 days of treatment, cells were washed with cold PBS, fixed with paraformaldehyde, and stained with crystal violet solution.
(§2) Clonogenic Assay. Cells in fresh complete medium were plated at very low density (3×10^2 per well) into six-well plates for 18 h. After complete adhesion, cells were treated with compound I-1 by adding directly to the medium to give the concentration indicated in the figures. Cells were allowed to grow until visible colonies formed (10 days). Cell colonies were fixed with 4% paraformaldehyde in PBS (phosphate-buffered saline), stained with 0.25% crystal violet in 25% methanol, washed and air-dried.

DU145 cells [1] = assay: Immunofluorescence (confocal) microscopy, α-tubulin and DAPI; conditions: 10 μM
Method: FIG. 14. Fluorescent microscopy of DU145 prostate cancer cells. DU145 cells were plated in culture dishes designed for confocal microscopy and allowed to adhere for 18 hours at 37° C. They were then for incubated for a further 24 and 48 h with 10 μM compound I-1 or 48 h with vehicle (DMSO). After that, cells were washed with cold PBS, fixed with 4% paraformaldehyde, and permeabilized with 0.1% Triton 100X. Cells were stained with 4′6-diamidino-2-phenylindole (DAPI), which binds to DNA, and with anti-α-tubulin antibody labeled with Alexa Fluor 488 to show the location of microtubules. Scale bars indicate a length of […], arrows indicate cells with evidence of aberrant mitosis, and asterisks indicate cells with apoptotic morphology.
Immunofluorescence microscopy. Cells (2.5×10^4) in fresh complete culture medium were plated on 18 mm diameter glass cover slips for 18 h. The medium was replaced with complete medium containing 10 μM compound I-1 or an equivalent volume of vehicle (DMSO) and incubated for 24 or 48 h. After incubation, cells were washed 3 times with ice-cold PBS, fixed in 4% paraformaldehyde in PBS for 30 min at room temperature, and washed three times with PBS. Cells were permeabilized for 1 min in PBS containing 0.1% Triton X-100, and washed three times with PBS. […]

DU145 cells [2] = assay: Clonogenic assay in DU145
Method: as §1, §2

DU145 cells [3] = assay: Annexin V-FITC / propidium iodide flow cytometry (apoptosis)
Method: FIG. 9. Effect of compound I-1 at 5 μM on cell cycle and apoptosis. Cells were then harvested by trypsinization. (A) For flow cytometric analysis of cell cycle parameters, cells were fixed, and stained with propidium iodide. Each histogram indicates the percent of cells in G1, S, and G2/M phases of the cell cycle. Data were gated to exclude apoptotic cells for these calculations. (B) For apoptosis detection, cells were incubated with FITC-conjugated Annexin V and propidium iodide. Flow cytometric analysis was performed and the histogram for each sample was split into four quadrants to indicate: viable cells (lower left quadrant), apoptotic cells (lower right quadrant), necrotic cells (upper left quadrant), and necrotic/late apoptotic cells (upper right quadrant).
FIG. 13. Assays to detect apoptosis in DU145 cells. Prostate cancer cells were left untreated (−) or treated with 10 μM compound I-1 or with vehicle (DMSO) for the time indicated in the figure. (A) After treatment, cells were harvest by trypsinization, washed with PBS, and then incubated with FITC-conjugated Annexin V and propidium iodide. Flow cytometric analysis was performed. The histogram for each sample was split into four quadrants to indicate: viable cells (lower left quadrant), apoptotic cells (lower right quadrant), necrotic cells (upper left quadrant), and necrotic/late apoptotic cells (upper right quadrant). (B) After treatment, cells were lysed and total lysates were analyzed for cellular apoptotic markers by immunoblotting using anti-[…] or antibodies specific to the activated form of Caspase-3 (cleaved Caspase-3). Anti-GAPDH-1 antibody was used as loading control. (C) Some cells were harvested by trypsinization, washed with PBS, and total DNA was extracted then analyzed on a 1.8% agarose gel. M indicates DNA size marker (base pairs).
Flow cytometric assays of cell cycle and cell death. Cells in fresh complete medium were plated (2×10^5 per well) into six-well plates for 18 h. After complete adhesion, cells were treated as indicated in the figures and harvested by trypsinization. For cell cycle distribution, cells were fixed, and stained with propidium iodide using the Cycle Test Plus kit (Becton Dickinson). For cell death detection, cells were stained with Annexin-V-FITC and propidium iodide using the Apoptosis Detection Kit (BD Biosciences), according to the manufacturer's instructions. Cells were then analyzed by flow cytometry using a FACScalibur cytometer (BD Biosciences, Mountain View, Calif.) and FlowJo program (Tree Star, Inc., Ashland, Oreg.).
Compound I-1 promotes cell death by apoptosis. Because prolonged cell cycle arrest can cause induction of cell death, we next investigated the viability of prostate cancer cells treated with compound I-1. To begin, we used the trypan blue exclusion assay, which is based on the principle that live cells will exclude membrane-impermeable dyes such as trypan blue, whereas trypan blue will get inside the dead cells and stain them. […] To determine whether apoptosis (programmed cell death) is the cause of cell death induced by compound I-1, we examined the cells for biochemical and morphological markers of apoptosis. Cells undergoing apoptosis specifically translocate the membrane phospholipid phosphatidylserine (PS) from the inner face of the plasma membrane to the cell surface; therefore, apoptotic cells can be identified by the presence of PS on the cell surface. Detection of PS is achieved by staining with a fluorescent conjugate of Annexin V, a protein that has a high affinity for PS, followed by flow cytometry analysis. Cells are stained in parallel with propidium iodide (PI), which can only enter the cell when the plasma membrane is damaged. This allows early apoptotic cells (positive for PS, but negative for PI) to be distinguished from late apoptotic and necrotic cells (positive for both PS and PI).

For `C[C@@H]1CC[C@H]2C3C(O[C@]4([C@]5(O)CC6(C)C(=O)OC5C[C@@]6(C)O)CC[C@@]31O4)[C@H]1O[C@]13CC=CC(=O)[C@]23C` (stereo partly shown) [I-1], the “effect on colony formation” value (PC-3 cells; 2.5 μM, 10 days) was “Inhibitory effects”, the “concentration that blocked the capacity of single cancer cells to generate colonies” value (PC-3 cells; 10 days of treatment) was at least 5 µM and the “cells with evidence of aberrant mitosis” value (DU145 cells [1]; 24 h) was “increased number”. For the same molecule, the “cells with evidence of abnormal mitosis or apoptosis” value (DU145 cells [1]; 48 h) was “almost all of the cells”, the “effect on colony formation” value (DU145 cells [2]; 2.5 μM, 10 days) was “Inhibitory effects” and the “concentration that blocked the capacity of single cancer cells to generate colonies” value (DU145 cells [2]; 10 days of treatment) was at least 5 µM. The apoptotic population (DU145 cells [3]; 5 μM, 24 h) was 5.2%, the apoptotic population (DU145 cells [3]; 5 μM, 48 h) was 9.2% and the apoptotic population (DU145 cells [3]; 5 μM, 72 h) was 11.5%. The apoptotic population (DU145 cells [3]; 10 μM, 24 h) was 7.4%, the apoptotic cell population (DU145 cells [3]; 10 μM, 48 h) was 32.3% and the apoptotic cell population (DU145 cells [3]; 10 μM, 72 h) was 46.4%. The “population of late apoptotic/necrotic cells” value (DU145 cells [3]; 10 μM, 72 h) was 28.4%.
